Legend:
[1] = tested on: chronic myeloid leukemia (CML) cells; set-up: method as in PMID 26026053; settings: cited from earlier work
Stat5 = assay: Ligand-induced Stat5 dimerization, two cell-based assays (summary); set-up: species or system human; settings: read-out: IC50, suppression of ligand-induced Stat5 dimerization; both cell-based dimerization assays
Excerpt: Down-regulation of Stat5 phosphorylation by IST5 can theoretically be caused by IST5 blocking Stat5 monomer docking to the activated receptor-Jak2 complex (Figure 1) and/or by IST5 inhibition of Jak2 kinase activity. […] To further investigate whether IST5 is able to disrupt dimerization of Stat5 molecules, we employed two separate cell-based assays. […] Because both phosphorylation and dimerization of Stat5 were inhibited at similar concentrations of IST5, it is difficult to determine whether disruption of Stat5 dimerization by IST5 is caused by suppression of Stat5 phosphorylation or a direct effect of IST5 in hindering Stat5 dimer-formation or both events occurring at the same time in the cell. However, it is known that heteromolecular interactions are easier to disrupt than interactions between two Stat5 monomers implying that the primary mechanism of action of IST5 may be suppression of Stat5 docking to the receptor-kinase complex. It is important to note that bypassing tyrosine kinases responsible for Stat5 phosphorylation by utilizing direct Stat5 inhibitor would be advantageous for therapy development for Stat5-regulated cancers because targeting Stat5 directly is likely to cause less off-target side effects than targeting kinases or cell surface receptors.

athymic nude mice [2] = assay: Acute toxicity study, plasma biochemistry; assay type: in vivo; settings: for ALT / AST / Albumin / Alk.Ptase / BUN / Bile Acid / Chol / Globulin / TBIL: plasma
Protocol: The acute toxicity study of the compound IST5 was carried out in athymic nude mice (8 weeks) (Crl:NU/NCr-Foxn1n) of either sex (n = 8/dose group, 4 of each sex). IST5 compound was administered once (0, 10, 30, and 100 mg/kg) via single intra-peritoneal (i.p.) injection, and the mice in the vehicle (0 mg/kg) group received each a single i.p. injection of 0.3% hydroxypropyl cellulose. Plasma samples were analyzed for liver (AST, […], alkaline phosphatase, total bilirubin, bile acid) and kidney functions (BUN, albumin, globulin and albumin-globulin ratio) (Marshfields Labs, WI, USA).
The following clinical chemistry parameters were measured: Aspartate aminotransferase (AST), alanine aminotransferase (ALT), sorbitol dehydrogenase (SDH), alkaline phosphatase (ALP), γ-glutamyltransferase (GGT), lactate dehydrogenase (LDH), bilirubin (TBIL), protein (TP), glucose (GLU), blood urea nitrogen (BUN), creatinine (CREAT), and electrolytes (Na, K, Cl, Ca, CO2).

athymic nude mice [3] = assay: Chronic toxicity study (28 days), plasma biochemistry; assay type: in vivo; settings: i.p. 28 days; for A-G Ratio / ALT / AST / Albumin / Alk.Ptase / Bile Acid / Chol / TBIL / Globulin / BUN: plasma; for Globulin: in g/dL (unit assumed); for BUN: in mg/dL (unit assumed)
Protocol: Forty athymic nude mice (8 weeks) (Crl:NU/NCr-Foxn1n) of either sex (20 males and 20 females) were randomized into four groups (n = 5/group) for either sex. The randomization of the mice was carried out based on their baseline body weight measured on day 0. IST5 or vehicle (0.3% hydroxypropyl cellulose, (Sigma-Aldrich, MO, St. Louis, MO, USA) were administered to the mice by i.p. injection for 28 days. The mice were observed daily for behavior, and body weights were measured on every 3rd day throughout the 28-day experimental protocol. The monitoring was started immediately after the compound administration and continued for 2 h for any acute signs of toxicity. In addition, the mice were monitored daily for any signs of toxicity using several clinical parameters. The clinical signs that were taken into consideration were as follows: 1) weight loss: rapid weight loss ([…]) or, weight loss of extended period time ([…]); 2) rapid growth of mass or masses; 3) paralysis or paresis (partial paralysis); 4) frank bleeding from any orifice; 5) lesions interfering with eating or drinking; 6) diarrhea (non-formed/soft stool or diarrhea liquid stool); 6) loss of body temperature; 7) appearance: rough coat, porphyrin staining (red or brown staining around eyes, nose, or along front paws, distended abdomen, alopecia; 8) eyes: ocular discharge, pale appearance, distinct icterus (jaundice or yellowing of the eyes); 9) respiration: coughing or wheezing, rales or crackling in the lungs, respiration increased or labored; 10) behavioral: hunched posture, huddling in a corner, lethargy, avoiding cagemate(s), head tilt, tremors (head, body, tail), spasticity (stiff muscles), ataxia (loss of voluntary muscle movement), seizures or convulsions, circling, persistent self-induced trauma, chattering or vocalizations, loss of startle response, loss of righting reflex. The clinical chemistry parameters measured were the same as those used for the acute toxicity study.

## O=P(O)(O)OCC1OC(n2cnc3c(NCc4ccccc4)ncnc32)C(O)C1O (stereo not drawn) [IST5]
[1]
  efficacy in CML cells: remarkable efficacy
Stat5
  IC50: 1000 to 1300 nM
Athymic nude mice [2]; single i.p. 10 mg/kg
  BW: 22.8 ± 0.79 g
  ALT: 62.1 ± 11.0 U/L
  AST: 284 ± 78.7 U/L
  Albumin: 3.25 ± 0.01 g/dL
  Alk.Ptase: 43.17 ± 3.5 U/L
  BUN: 27.67 ± 1.4
  Bile Acid: 0.88 ± 0.40 µmol/dL
  Chol: 67.80 ± 5.0 mg/dL
  Globulin: 1.4 ± 0.01
  TBIL: 0.51 ± 0.10 mg/dL
Athymic nude mice [2]; single i.p. 30 mg/kg
  BW: 21.9 ± 089 g
  ALT: 100 ± 23.9 U/L
  AST: 488 ± 168 U/L
  Albumin: 4.16 ± 0.59 g/dL
  Alk.Ptase: 57.0 ± 6.82 U/L
  BUN: 29.6 ± 1.79
  Bile Acid: 3.35 ± 2.87 µmol/dL
  Chol: 182 ± 57.8 mg/dL
  Globulin: 1.4 ± 0.08
  TBIL: 1.16 ± 0.43 mg/dL
Athymic nude mice [2]; single i.p. 100 mg/kg
  BW: 22.0 ± 0.97 g
  HCT: 0.44 ± 0.01 L/L
  ALT: 73.2 ± 15.4 U/L
  AST: 377 ± 96.7 U/L
  Albumin: 3.32 ± 0.15 g/dL
  Alk.Ptase: 55.8 ± 5.42 U/L
  BUN: 28.6 ± 1.14
  Bile Acid: 2.52 ± 1.28 µmol/dL
  Chol: 89.4 ± 5.91 mg/dL
  Globulin: 1.28 ± 0.10
  TBIL: 0.62 ± 0.09 mg/dL
Athymic nude mice [3]; 10 mg/kg
  BW: 22.5 ± 1.1 gm
  HCT: 0.43 ± 0.02 L/L
  A-G Ratio: 1.93 ± 0.08
  ALT: 50.4 ± 3.71 U/L
  AST: 329.9 ± 30.9 U/L
  Albumin: 2.69 ± 0.05 g/dL
  Alk.Ptase: 51.3 ± 0.72 U/L
  Bile Acid: 21.0 ± 12.7 µmol/dL
  Chol: 65.0 ± 2.09 mg/dL
  TBIL: 0.26 ± 0.02 mg/dL
  Globulin: 1.41 ± 0.04
  BUN: 20.5 ± 0.82
Athymic nude mice [3]; 30 mg/kg
  BW: 23.5 ± 0.6 gm
  HCT: 0.45 ± 0.01 L/L
  A-G Ratio: 1.9 ± 0.11
  ALT: 45.2 ± 3.76 U/L
  AST: 336 ± 57.1 U/L
  Albumin: 2.74 ± 0.07 g/dL
  Alk.Ptase: 53.0 ± 1.93 U/L
  Bile Acid: 2.39 ± 0.32 µmol/dL
  Chol: 70.3 ± 1.38 mg/dL
  TBIL: 0.21 ± 0.01 mg/dL
  Globulin: 1.47 ± 0.07
  BUN: 25 ± 1.32
Athymic nude mice [3]; 100 mg/kg
  BW: 23.5 ± 0.9 gm
  HCT: 0.43 ± 0.03 L/L
  ALT: 50.9 ± 3.83 U/L
  AST: 327 ± 4.03 U/L
  Albumin: 2.74 ± 0.04 g/dL
  Alk.Ptase: 53.3 ± 1.76 U/L
  Bile Acid: 2.98 ± 0.29 µmol/dL
  Chol: 75.9 ± 2.06 mg/dL
  BUN: 23.0 ± 0.07

— publication PMC7724566, “Prospects for Clinical Development of Stat5 Inhibitor IST5-002: High Transcriptomic Specificity in Prostate Cancer and Low Toxicity In Vivo” (Cancers, 2020)
